Four compounds from patent US20260226000A1, “Methadone Active Agents and Methods of Use Thereof” (Ensysce Biosciences Inc., priority 2023, published 2026) can be followed below.

Data set [1] has as its target hERG (human ether-à-go-go-related gene) channel expressed in CHO cells (Homo sapiens, UniProt Q12809). Nature of the data set: ScreenPatch assay, hERG ion channel block (SyncroPatch 384PE patch clamp). As to conditions: for Methadone Active Agent/Methadone Ratio (hERG IC50): IC50 relative to racemic methadone HCl. (Block of hERG is tested as a sign of cardiac risk.)
Data set [2] in a line: Maximally tolerated dose study by oral gavage administration.

Counter-ions that a name gives are not always drawn. A value given as a limit tells only on which side of the number the result lay.

hERG (human ether-à-go-go-related gene) channel expressed in CHO cells, sequence (Q12809 whole entry): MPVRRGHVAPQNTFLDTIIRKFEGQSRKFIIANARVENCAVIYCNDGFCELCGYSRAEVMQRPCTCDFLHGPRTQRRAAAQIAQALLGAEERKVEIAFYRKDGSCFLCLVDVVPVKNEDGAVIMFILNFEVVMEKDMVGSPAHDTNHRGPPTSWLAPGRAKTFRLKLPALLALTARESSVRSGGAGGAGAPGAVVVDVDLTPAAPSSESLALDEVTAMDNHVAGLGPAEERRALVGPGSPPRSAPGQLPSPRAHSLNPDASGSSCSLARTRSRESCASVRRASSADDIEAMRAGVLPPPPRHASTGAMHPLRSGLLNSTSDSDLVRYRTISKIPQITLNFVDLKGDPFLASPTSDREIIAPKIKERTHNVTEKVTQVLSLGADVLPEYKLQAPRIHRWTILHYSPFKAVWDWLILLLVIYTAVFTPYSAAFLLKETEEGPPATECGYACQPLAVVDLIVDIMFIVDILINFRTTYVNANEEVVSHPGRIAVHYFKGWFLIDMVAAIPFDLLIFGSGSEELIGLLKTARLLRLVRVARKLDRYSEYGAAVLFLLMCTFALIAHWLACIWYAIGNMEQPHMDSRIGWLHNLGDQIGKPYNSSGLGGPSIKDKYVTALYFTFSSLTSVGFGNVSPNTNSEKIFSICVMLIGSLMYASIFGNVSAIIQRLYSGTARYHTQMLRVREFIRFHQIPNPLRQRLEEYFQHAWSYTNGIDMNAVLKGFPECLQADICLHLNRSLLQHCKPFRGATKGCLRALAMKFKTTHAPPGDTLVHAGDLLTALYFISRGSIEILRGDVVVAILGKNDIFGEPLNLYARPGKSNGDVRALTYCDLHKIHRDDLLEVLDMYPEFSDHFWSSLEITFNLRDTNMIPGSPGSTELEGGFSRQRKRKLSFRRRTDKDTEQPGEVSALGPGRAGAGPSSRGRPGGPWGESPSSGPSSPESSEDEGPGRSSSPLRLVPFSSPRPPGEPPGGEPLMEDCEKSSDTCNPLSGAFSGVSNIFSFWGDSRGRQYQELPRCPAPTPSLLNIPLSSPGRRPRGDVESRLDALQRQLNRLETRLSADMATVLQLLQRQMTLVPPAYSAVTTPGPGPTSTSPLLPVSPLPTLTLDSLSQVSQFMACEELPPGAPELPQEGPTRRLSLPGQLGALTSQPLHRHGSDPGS

As for `CCC(=O)C(CC(C)N(C)C)(c1ccccc1)c1ccccc1` (racemic) [Racemic Methadone HCl, Methadone], the IC50 in data set [1] worked out at 1.89 µM.
With `C/C=C(/OC(=O)N(C)C(C)CNC(=O)[C@H](CCCNC(=N)N)NC(=O)c1ccccc1)C(C[C@@H](C)N(C)C)(c1ccccc1)c1ccccc1.O=C(O)C(F)(F)F` (stereo partly drawn) [Levo 1ME active agent, (R)-6-(dimethylamino)-4,4-diphenylhept-2-en-3-yl (1-((S)-2-benzamido-5-guanidinopentanamido)propan-2-yl)(methyl)carbamate 2,2,2-trifluoroacetate], the clinical observations entry in data set [2] (doses up to 100 mg/kg) is “did not have any clinical observations”. Moreover, in data set [1], the IC50 was above 100 µM and the “Methadone Active Agent/Methadone Ratio (hERG IC50)” value is listed as above 53.
For the compound `C/C=C(/OC(=O)N(C)C[C@@H](C)NC(=O)[C@H](CCCNC(=N)N)NC(=O)c1ccccc1)C(C[C@@H](C)N(C)C)(c1ccccc1)c1ccccc1.O=C(O)C(F)(F)F` [Levo 2RME active agent, (R)-6-(dimethylamino)-4,4-diphenylhept-2-en-3-yl ((R)-2-((S)-2-benzamido-5-guanidinopentanamido)propyl)(methyl)carbamate 2,2,2-trifluoroacetate], the clinical observations entry in data set [2] (100 mg/kg and 125 mg/kg) is listed as “no clinical observations through 72 hr period or limited observations”; in data set [2] (50 and 75 mg/kg) it was “some observations”. Further, the IC50 in data set [1] was 29.4 µM. Also, the “Methadone Active Agent/Methadone Ratio (hERG IC50)” value in data set [1] was determined as 15.6.
As for `C/C=C(/OC(=O)N(C)CCCCNC(=O)[C@H](CCCNC(=N)N)NC(=O)c1ccccc1)C(C[C@@H](C)N(C)C)(c1ccccc1)c1ccccc1.O=C(O)C(F)(F)F` [Levo-Butyl active agent, (R)-6-(dimethylamino)-4,4-diphenylhept-2-en-3-yl (4-((S)-2-benzamido-5-guanidinopentanamido)butyl)(methyl)carbamate 2,2,2-trifluoroacetate], in data set [2] (100 mg/kg and 125 mg/kg), the clinical observations entry is given as “no clinical observations through 72 hr period or limited observations”. Also, in data set [2] (50 and 75 mg/kg), the clinical observations result is reported as “some observations”. Further, in data set [1], the IC50 was 51.5 µM and the “Methadone Active Agent/Methadone Ratio (hERG IC50)” value amounted to 27.3.

The term IC50 denotes the concentration that inhibits the measured activity by half. A high value points to lower potency.
